Measured values published in patent US8614194B1, “Anionic cell penetrating peptide and its use for intracellular delivery” (Kaohsiung Medical University, priority 2012, dated 2013).
No end group written: not given here.

How the values were obtained:
Type in all cases: cell-based, human
[1] = tested on: hADSCs; assay: Fluorescence microscopy of translocation into cells; details: FITC-labeled, 10 μM, 30 minutes, 37° C., FIG. 5
Description: (§1) Cells are treated with 10 μM test compound for 30 minutes at 37° C., washed using PBS, and then treated with 0.5% trypsin. Cells are labeled with 5 μg/ml Hoechst 33342 (Invitrogen) and PKH26-GL (Sigma) respectively for nuclei and membrane labeling. Standard protocols are followed according to the kit instructions. Cells are lastly suspended again in PBS for fluorescence images. Fluorescence images are captured by Olympus, CellR and Olympus FV1000 confocal microscope using glass-bottom culture slides with excitation by 488 nm (FITC-labeled peptide) laser line.

[2] = tested on: HeLa cells; assay: as above; details: FITC-labeled, 10 μM, 30 minutes, 37° C., FIG. 4
Description: as §1

[3] = tested on: HeLa cells; assay: Endocytosis inhibition analysis (uptake with inhibitors); details: 10 μM, 37° C., 30 minutes, inhibitors NaN3 and 2DG, EIPA, NaClO3, FIG. 8(A)
Description: For inhibition of endocytosis, HeLa cells are treated with 200 mM sodium azide (NaN3; Sigma) and 2-deoxy-D-glucose (2DG; Sigma) for 1 hour to deplete intracellular ATP pools and influence cell metabolism. hADSCs are treated with 10 mM NaN3 and 2DG for 1 h with the same purpose. For inhibition of macropinosome formation, HeLa cells and hADSCs are treated with 3 mM 5-(N-ethyl-N-isopropyl) amiloride (EIPA, Sigma) for 10 minutes. For inhibition of proteoglycan sulfation, HeLa cells and hADSCs are treated with 600 mM sodium chlorate (NaClO3, Sigma) for 2 days. After this treatment of inhibitors, cells are treated with 10 μM test compound (200 μl), and then incubated at 37° C. for 30 minutes. 10^4 cells in 0.1 ml medium are seeded into each well of a 24-well plate, and then trypsin (200 μl) is added into each well. Cells are transferred to a microtube and incubated for 5 minutes. Cells are processed for flow cytometry as described above after being added with 200 μl of medium and washed with PBS.

Substance | translocation into cells [1] | translocation into cells [2] | route of internalization, uptake combined with inhibitors [3]
6-aminocaproic acid-R7 [ACP-R7] | crosses into ADSCs | crosses into HeLa cells | internalized by macropinocytosis, endocytosis, and direct translocation resulted from proteoglycan sulfation
AAAADD [A4D2, four alanine residues linked to the N terminal of two aspartate residues] | crosses into ADSCs | – | –
AADDDD [A2D4, two alanine residues linked to the N terminal of four aspartate residues] | crosses into ADSCs | – | –
DDDDDD [D6, peptide of six aspartate residues] | crosses into ADSCs | – | –
KD6K-simvastatin: peptide KDDDDDDK carrying simvastatin and PEG500; Lys capped by acetic anhydride or FITC (also: carries simvastatin and PEG500, Lys capped by acetyl or FITC) | crosses into ADSCs | – | –
KDDDDDD [KD6, one lysine residue linked to the N terminal of six aspartate residues] | crosses into ADSCs | – | –
